# Source: patent publication US20240140970A1, “A […], AND PREPARATION METHOD AND USE THEREOF” (ASCENTAWITS PHARMACEUTICALS, LTD., priority 2021, published 2024)
# “And” between values parts separate entries of the source, which are not always exact repeats. Equal entries are not always repeated.
# Key:
# [1] = Stability of aqueous solution of AST-2660-D8-sodium salt by 31P-NMR with HMPA as internal standard; type: physicochemical
# Experimental: This example is to study the stability of the sample solution by detecting the content of the aqueous solution of AST-2660-D8-sodium salt: ^31P-NMR was used for detection, and the content of the aqueous solution of AST-2660-D8-sodium salt was characterized by comparing the area ratio of ^31peak of HMPA as an internal standard to that of ^31P peak of AST-2660-D8 sodium salt within 48 hours, thereby determining whether the mass of the sample solution was reduced as a result of degradation.
# ^31P-NMR of the samples was run on an NMR instrument.
# HMPA (21.8 mg, 0.1217 mmol) was dissolved in water (2.20 mL), wherein the total mass was […], and the concentration of HMPA was 5.72×10^−5 mmol/mg. A solution of AST-2660-D8-sodium salt (588 mg, about 0.5 mL) and a solution of HMPA (293 mg, 1.676×10^−2 mmol) were mixed together as samples for 31 P-NMR analysis under −20° C. storage conditions at different times. The ratio of integrated peak area of the nuclear magnetic peak (about 29.874 ppm) for the corresponding HMPA to that of the nuclear magnetic peak (about 24.491 ppm) for AST-2660-D8-sodium salt in the nuclear magnetic spectrum was calculated, and the integrated peak of the nuclear magnetic peak for HMPA was set as 1.
# According to the same operation, a sample with another concentration was formulated for detection, and ^31P-NMR analysis was performed under −78° C. storage conditions at different times. […]
# [2] = Stability of AST-2660 and AST-2660-D8 methanol stock/working solutions (LC-MS/MS peak area, stored vs fresh solution); type: physicochemical
# Experimental: The relevant parameters of the LC-MS/MS experimental method are provided.
# AST-2660 (prepared by referring to Example 1 and selecting non-deuterated raw materials) standard stock solution (methanol solution with a concentration of 1.0 mg/ml): an appropriate amount of AST-2660 was taken, added with an appropriate amount of methanol, diluted and mixed thoroughly to obtain 1.0 mg/ml of solution.
# A 100 μL standard stock solution of AST-2660 was taken, added with 9900 μL of methanol, diluted and mixed thoroughly to obtain 10.0 μg/ml of calibration standard working solution.
# […] A 20 μL of internal standard stock solution of AST-2660-D8 was taken, added with 9980 μL methanol, diluted and mixed thoroughly to obtain 100 ng/ml of internal standard working solution.
# It can be seen from Table 10 that the accuracy of the stability of the AST-2660 working solution and the internal standard AST-2660-D8 working solution was within ±8.1%, and the precision was less than 5.5%. Stability analysis criteria: the difference between the storage stable solution and the freshly prepared solution must be within ±10.0%, and the CV of each replicate experiment must not be greater than 10.0%. Therefore, both AST-2660 and AST-2660-D8 (internal standard) working solutions had good stability and met the requirements under various storage conditions.
# [3] = 100 ng/ml methanol solution, fresh stock solution, t = 0
# [4] = 100 ng/ml methanol solution, working solution stored at −70° C., t = 26 days
# [5] = 1 mg/ml methanol solution, fresh stock solution, t = 0
# [6] = 1 mg/ml methanol solution, stock solution stored at −70° C., t = 26 days
compound,measurement,setting,value
[2H]C1([2H])N(P(=O)([O-])N2C([2H])([2H])C2([2H])[2H])C1([2H])[2H].[Na+] [AST-2660-D8 sodium salt],concentration of AST-2660-D8 sodium salt,[1]; aqueous solution after storage at −20° C. for 6 months,1370 µg/mL
same,concentration of AST-2660-D8 sodium salt,[1]; aqueous solution after storage at −78° C. for 6 months,1710 µg/mL
same,decrease of concentration,"[1]; aqueous solution, 6 months of storage at −20° C.",27.5%
same,decrease of concentration,"[1]; aqueous solution, 6 months of storage at −78° C.",9.5%
same,concentration of AST-2660-D8 sodium salt,"[1]; aqueous solution, day 0",1890 µg/mL
same,stability of solution (in words),[1]; stored at −20 to −78° C. for 48 hours (2 days),stable
same,"RE (% difference, peak area stock vs fresh solution)","[2]; 100 ng/ml AST-2660-D8 methanol working solution, 26 days at −70° C.",RE: 0.9%
same,"Peak area (AST-2660-D8), Mean value",[2]; [3],3282130
same,"Peak area (AST-2660-D8), single replicates",[2]; [3],3253860 and 3323720 and 3204960 and 3285390 and 3314390 and 3310460
same,Deviation % over fresh stock solution,[2]; [4],0.9%
same,"Peak area (AST-2660-D8), Mean value",[2]; [4],3311013
same,"Peak area (AST-2660-D8), single replicates",[2]; [4],3289570 and 3332520 and 3294750 and 3307750 and 3306110 and 3335380
same,"Peak area (AST-2660-D8), Mean value",[2]; [5],548278.5
same,"Peak area (AST-2660-D8), single replicates",[2]; [5],574450 and 589227 and 535059 and 530296 and 537317 and 523322
same,Deviation % over fresh stock solution,[2]; [6],−2.0%
same,"Peak area (AST-2660-D8), Mean value",[2]; [6],537342.5
same,"Peak area (AST-2660-D8), single replicates",[2]; [6],539154 and 532283 and 520321 and 550350 and 532469 and 549478
same,stability of methanol solution (in words),[2]; stored for 26 days at −70° C.,strong stability
